According to article PMC8546421, “Molecular modelling of the FOXO4-TP53 interaction to design senolytic peptides for the elimination of senescent cancer cells” (EBioMedicine, 2021):
“Also recorded” adds a separate entry of the source. Where no end group is shown, it is not given here.

Columns and labels:
[1] = system: dividing A375 cells; assay: Orthotopic xenograft of dividing luciferase A375 cells, radiance; assay type: in vivo, mouse; conditions: dividing A375 cells injected orthotopically, locally injected twice, imaged one day later; ES2 n=5, saline n=9
[2] = system: A375 cells; assay: Annexin V live cell stain, kinetics of apoptosis; assay type: cell-based, human; conditions: 8 µM ES2, A375 cells, linear regression comparison p<0.001
[3] = system: PMAIP1 (NOXA) and BBC3 (PUMA); assay: ddPCR of TP53 target genes; assay type: cell-based, human
Method: Primers and probes were designed specifically for ddPCR for human BBC3 (Bio-Rad Cat# 10031255, Assay ID dHsaCPE5034069) and PMAIP1(Bio-Rad Cat# 10031252, Assay ID dHsa5037552) genes. RNA was extracted using the Qiagen RNeasy Kit (Cat# 74004). 5 ng of RNA was used for 22 µl PCR reaction mixtures using the One-Step RT-ddPCR Advanced Kit for Probes (Bio-Rad Cat# 1864022) following the manufacturer's protocol. ddPCR droplets were generated using the Bio-Rad Automated Droplet Generator. Plate containing ddPCR droplets was sealed and RT-PCR was performed using the C-1000 Thermal Cycler (Bio-Rad). ddPCR was performed in the QX200 Droplet Digital PCR System (Bio-Rad). Analysis of the ddPCR data was performed using QX200 analysis software.

[4] = Systemic delivery to aged mice, blood counts, weight, plasma urea; assay type: in vivo, mouse
[5] = system: dividing A375 cells; assay: Peptide efficacy in culture (MTS), dividing cells; assay type: cell-based, human; conditions: peptide replenished daily for two days, MTS, best fit polynomial, read-out: IC50^div, concentration to kill 50% of dividing cells
Method: Cell lines were treated with chemotherapy, doxorubicin (Sigma, Cat. No. 2252) to induce senescence (200 nM for HCT116, 100 nM for B16-F10 and MCF7, 50 nM for SW480 and DLD-1, 40 nM for A375-Luc/iRFP and MCF10a). MCF7 cells were treated with CDK4/6 inhibitor, palbociclib (Selleck Chemicals: S1116) to induce senescence (5 µM). A375 cells were treated with Braf inhibitor, Dabrafenib (Selleck Chemicals: S2807), to induce senescence (10 µM). Peptide efficacy experiments were performed by seeding 10,000 – 20,000 cells in a 96-well plate. The cells were given doxorubicin twice to make the cells senescent. After removal of doxorubicin, the plate was treated with varying concentrations of peptide. The peptide was replenished daily for two days. Cellular proliferation was quantified using the Promega CellTiter 96™ AQueous One Solution Cell Proliferation Assay (MTS) after 2 hours according to the manufacturer's protocol (Promega, G3581). To control for the charge of ES2, ProteoJuice (Millipore Sigma, 71281) was used to deliver ES2 using the manufacturers protocol, except 50 µL of 2 mM ES2 was mixed with 25 µL of ProteoJuice. Varying concentrations of the mixture were administered to A375 cells along with a control of only ProteoJuice.

[6] = system: FOXO4-TP53 interaction; assay: Co-immunoprecipitation of Myc-FOXO4 for p53; assay type: cell-based, human; conditions: senescent HCT116-Myc-FOXO4 cells, 8 µM ES2, 1 hour
Method: HCT116 cells were transduced with FOXO4 (NM_005938) human tagged ORF Lentiviral Particles (Origene, Cat# RC213185L1V) at 10^6 TU/mL. Cells were then cultured for seven passages. HCT116-Myc-FOXO4 were made senescent using 200 nM Doxorubicin at the final cell concentration of 24 million cells. Dividing cells were plated at concentration of 80 million cells. The following day, cells were treated with 8 µM ES2 for 0 or 1 hour. Nuclear protein was then isolated using NE-PER™ Nuclear and Cytoplasmic Extraction Reagents kit (Cat# 78833) then quantified via Pierce^TM BCA Protein Assay Kit (Cat# 23225) according to manufacturer's instructions. 400 µg of each nuclear lysate and 10 µL of provided positive control was used in the Thermo Scientific™ Pierce™ c-Myc-Tag IP/Co-IP Kit (Cat# 23620). The eluted protein (20 µL) was then loaded onto Bolt™ 4 to 12%, Bis-Tris, 1.0 mm, Mini Protein Gel, 10-well (Cat# NW04120BOX) and run at 120V for 60 minutes in 1X Invitrogen™ Bolt™ MOPS SDS Running Buffer using the Mini Gel Tank (Cat. A25977). Protein was then transferred onto 0.4 µm PVDF according to manufacturer protocol. The membrane was then blocked in 5% non-fat milk in 1x TBS-T (Cat# 03-500-537) for 60 minutes. […]

[7] = aged mice (82 weeks), 3 mg ES2 via tail vein weekly for three weeks, n=5

PRKGGRRRRAWGRRRRRRRRRRRRRRAPRKRLTLA [ES2]
elimination of dividing cancer cells in vivo (radiance) [1]: no difference in gain of radiance; also recorded: ineffective at eliminating dividing cancer cells
rate of apoptosis, senescent compared to dividing cells [2]: four-fold
NOXA and PUMA levels in senescent cells ([3]; 30 minutes after ES2 treatment, n=6, p<0.001): significant increase in levels
NOXA and PUMA levels in dividing cells ([3]; dividing cells): no response
change in weight of the mice [4, 7]: no significant change
changes in numbers of white blood cells, platelets, or red blood cells [4, 7]: non-significant changes
toxicity after multiple doses ([4]; aged mice, 3 weekly i.v. doses): minimal toxicity
plasma urea levels ([4]; aged mice, endpoint, n=5): while not significant, were reduced
IC50 [5]: ~17 µM
TP53 band co-immunoprecipitated with Myc-FOXO4 [6]: a band at 53kDa that is eliminated after treating with ES2
